{"source": "patent US20050244360A1", "about": "“Cosmetic composition for greasy skin care, containing a carboxylic fatty acid or a derivative thereof” (L'OREAL, priority 2003, published 2005)", "key": {"Propionibacterium sp": {"system": "Propionibacterium sp", "details": "topical gel containing 20% azelaic acid, male subjects with clinical acne; cited from earlier work"}, "human keratinocytes": {"system": "human keratinocytes", "details": "concentrations of the order of 1 mM; cited from earlier work"}, "excreted sebum": {"system": "excreted sebum", "details": "doses used to treat acne (SKINOREN); subjects with acne, seborrheic skin without acne, normoseborrheic; cited from earlier work"}, "SZ 95 sebocytes": {"system": "SZ 95 sebocytes", "assay": "Tolerability: cytotoxicity by production of LDH in the culture medium", "format": "cell-based, human", "details": "1 μM", "method": "The tolerability of azelaic acid was measured by measuring the cytotoxicty of the product using SZ 95 sebocytes (Zouboulis, Seltmann et al., 1999). The test conditions were the same as those given in Example 1. The cytotoxicity was measured by the production of LDH in the culture medium."}, "[1]": {"system": "sebocytes from an immortalized human line", "assay": "Reduction of lipogenesis: lipids produced by immortalized human sebocytes, RED NILE dye fluorescence", "format": "cell-based", "details": "for QUANTITY OF LIPIDS MEASURED / REDUCTION IN LIPOGENESIS/CONTROL: 2 days of treatment; for QUANTITY OF LIPIDS MEASURED: control = 100; for REDUCTION IN LIPOGENESIS/CONTROL: vs culture medium control", "method": "The test which was developed consisted of measuring, after 2 days of treatment, the quantity of lipids produced by sebocytes from an immortalized human line (in the presence or absence of active agents). The fluorescence emitted by RED NILE dye was measured at two distinct wavelengths to quantify the amount of characteristic neutral lipids of the sebum. Glucocorticoids are known to reduce the production of sebum in non […] subjects (Leveque, J. L. et al., (1991)). Thus, cortisol was selected as a reference, while the culture medium alone was selected as the control (no supplemental excipient was added either to the cortisol or to the azelaic acid, these latter being dissolved in the culture medium under the test conditions). […] Its activity was moderate compared with the pharmaceutical reference. Nevertheless, it should have a significant cosmetic action in a suitable formulation, if necessary by making repeated applications."}, "sebum excretion": {"system": "sebum excretion", "details": "topical 20% azelaic acid gel, individuals with physiological acne; cited from earlier work"}, "cutaneous micrococcaceae": {"system": "cutaneous micrococcaceae", "details": "topical gel containing 20% azelaic acid, male subjects with clinical acne; cited from earlier work"}, "sebum production": {"system": "sebum production", "details": "cited from earlier work"}}}
{"smiles": "O=C(O)CCCCCCCC(=O)O", "note": "[Azelaic acid, azelaic acid]", "values": [{"measurement": "reduction of the number of Propionibacterium sp, factor", "setting": "Propionibacterium sp", "value": 30}, {"measurement": "effect on proliferation of human keratinocytes (in words)", "setting": "human keratinocytes", "value": "reduces the proliferation of human keratinocytes"}, {"measurement": "effect on quantity and composition of the excreted sebum (in words)", "setting": "excreted sebum", "value": "did not modify either the quantity or the composition of the excreted sebum"}, {"measurement": "sebocyte survival (in words)", "setting": "SZ 95 sebocytes", "value": "improves sebocyte survival"}, {"measurement": "LDH VARIATION/CONTROL", "setting": "SZ 95 sebocytes; same conditions as Example 1", "value": "−20", "unit": "%"}, {"measurement": "effect on sebum production by sebocytes (in words)", "setting": "[1]; 1 μM", "value": "inhibits sebum production"}, {"measurement": "QUANTITY OF LIPIDS MEASURED", "setting": "[1]; 1 μM", "value": 93}, {"measurement": "REDUCTION IN LIPOGENESIS/CONTROL", "setting": "[1]; 1 μM", "value": "−7", "unit": "%"}, {"measurement": "reduction in lipid secretion", "setting": "[1]; 1 μM, model immortalized culture of human sebocytes", "value": 7, "unit": "%"}, {"measurement": "activity compared with the pharmaceutical reference (cortisol)", "setting": "[1]; azelaic acid 1 μM vs cortisol 0.1 μM", "value": "moderate"}, {"measurement": "effect on sebum excretion (in words)", "setting": "sebum excretion", "value": "did not cause a significant modification in sebum excretion"}, {"measurement": "reduction of the number of cutaneous micrococcaceae, factor", "setting": "cutaneous micrococcaceae", "value": 224}, {"measurement": "ability to reduce sebum production (in words)", "setting": "sebum production", "value": "inability of azelaic acid to reduce sebum production"}]}
{"smiles": "C[C@]12CCC(=O)C=C1CC[C@@H]1[C@@H]2[C@@H](O)C[C@@]2(C)[C@H]1CC[C@]2(O)C(=O)CO", "note": "[Cortisol]", "values": [{"measurement": "QUANTITY OF LIPIDS MEASURED", "setting": "[1]; 0.1 μM", "value": 71}, {"measurement": "REDUCTION IN LIPOGENESIS/CONTROL", "setting": "[1]; 0.1 μM", "value": "−29", "unit": "%"}]}
